Results on six molecules are retold here after EPA's ToxRefDB 2.

Bounds are passed on as bounds.

In data set [1] the test system is rat. Conditions: Sub-acute repeat dose toxicity, sprague dawley, Oral, Gavage/Intubation, dose end: 1 month, group: systemic.
Data set [2] has as its system rat. Conditions: Fertility (Segment I), sprague dawley, Oral, Gavage/Intubation, dose end: 7 PND.
For data set [3], the system named is rabbit. Conditions: Prenatal developmental toxicity study, new zealand white, Oral, Gavage/Intubation, dose end: 19 GD.
Data set [4] relates to dog. Conditions: Sub-acute repeat dose toxicity; beagle; Oral; Gavage/Intubation; dose end: 1 month; group: systemic; systemic / in life observation / clinical signs / external lesion(s) + systemic / in life observation / clinical signs / reactivity to ….
For data set [5], the system named is rat. Conditions: Prenatal developmental toxicity study, sprague dawley, Oral, Gavage/Intubation, dose end: 17 GD.
The test system of data set [6] is rat. Conditions: Prenatal developmental toxicity study, sprague dawley, Oral, Gavage/Intubation, dose end: 17 GD. The source holds these as a separate data set.
In data set [7] the test system is rat. Conditions: Sub-acute repeat dose toxicity, sprague dawley, Oral, Gavage/Intubation, dose end: 1 month, group: systemic. This is another data set of the same source.
Data set [8] deals with rat. Conditions: Multigenerational reproductive toxicity study; sprague dawley; Oral; Gavage/Intubation; dose end: 17 GD; group: parental; systemic / in life observation / body weight / body weight + systemic / in life observation / food consumption / food consumption + systemic….
Data set [9] has as its system rat. Conditions: Sub-acute repeat dose toxicity, sprague dawley, Oral, Gavage/Intubation, dose end: 5 day, group: systemic.
The test system of data set [10] is dog. Conditions: Sub-acute repeat dose toxicity, beagle, Oral, Gavage/Intubation, dose end: 5 day, group: systemic.
Data set [11] has as its system dog. Conditions: Sub-acute repeat dose toxicity, beagle, Oral, Gavage/Intubation, dose end: 7 day, group: systemic.
The test system of data set [12] is mouse. Conditions: Subchronic oral toxicity in rodents, b6c3f1, Feed, dose end: 13 week, group: systemic.
The test system of data set [13] is rat. Conditions: Carcinogenicity, fischer, Oral, Feed, dose end: 103 week, group: systemic.
The test system of data set [14] is mouse. Conditions: Carcinogenicity, b6c3f1, Oral, Feed, dose end: 103 week, group: systemic.
The subject of data set [15] is rat. Conditions: Subchronic oral toxicity in rodents, fischer, Feed, dose end: 90 day, group: systemic, systemic / in life observation / body weight / body weight gain + systemic / pathology microscopic / kidney / calculus + systemic / ….
The subject of data set [16] is mouse. Conditions: Subchronic oral toxicity in rodents, b6c3f1, Feed, dose end: 90 day, group: systemic.
Data set [17] has as its system rat. Conditions: Subchronic oral toxicity in rodents, fischer, Feed, dose end: 13 week, group: systemic.
Data set [18] has as its system rat. Conditions: Subchronic oral toxicity in rodents, other, Feed, dose end: 90 day, group: systemic.
Data set [19] concerns rat. Conditions: Carcinogenicity, fischer, Oral, Feed, dose end: 78 week, group: systemic.
Data set [20] concerns mouse. Conditions: Carcinogenicity, b6c3f1, Oral, Feed, dose end: 78 week, group: systemic.
The mark [21] stands for this setting: systemic / in life observation / body weight / body weight + systemic / in life observation / body weight / body weight gain + systemic / in….
[22] abbreviates: systemic / in life observation / clinical signs / body temperature.
[23] abbreviates: group: maternal, reproductive / reproductive performance / estrous cycle / abnormal + reproductive / reproductive performance / estrous cycle / corpora lutea….
The mark [24] stands for this setting: group: parental, systemic / in life observation / body weight / body weight gain + systemic / in life observation / clinical signs / salivation + systemic / ….
Where [25] appears, read: group: parental, systemic / in life observation / clinical signs / salivation.
[26] abbreviates: group: developmental, systemic / in life observation / body weight / fetal weight.
The mark [27] stands for this setting: group: maternal, reproductive / reproductive performance / aborted / aborted + reproductive / reproductive performance / postimplantation loss / ….
[28] abbreviates: group: maternal, reproductive / reproductive performance / aborted / aborted + systemic / in life observation / clinical signs / body temperature + systemic….
Where [29] appears, read: group: maternal, systemic / in life observation / body weight / body weight gain + systemic / in life observation / clinical signs / body cold to touch + ….
[30] abbreviates: group: developmental, developmental / developmental malformation / bone / [other] + developmental / developmental malformation / bone / absent + developmental / ….
The mark [31] stands for this setting: group: maternal, reproductive / reproductive performance / postimplantation loss / postimplantation loss + reproductive / reproductive performance / ….
Setting [32] is: group: maternal, systemic / in life observation / body weight / body weight gain + systemic / in life observation / food consumption / food consumption.
Setting [33] is: systemic / clinical chemistry / cholesterol / cholesterol + systemic / organ weight / liver / absolute + systemic / organ weight / liver / ….
The mark [34] stands for this setting: systemic / pathology microscopic / liver / arteritis + systemic / pathology microscopic / liver / degeneration.
[35] abbreviates: systemic / in life observation / body weight / body weight + systemic / in life observation / clinical signs / [other] + systemic / in life ….
Setting [36] is: systemic / in life observation / body weight / body weight + systemic / in life observation / food consumption / food consumption + systemic….
Where [37] appears, read: systemic / in life observation / clinical signs / abnormal feces.
Where [38] appears, read: systemic / in life observation / clinical signs / abnormal feces + systemic / in life observation / clinical signs / emesis.
Where [39] appears, read: systemic / in life observation / clinical signs / erythema + systemic / in life observation / clinical signs / prostration + systemic / in ….
Where [40] appears, read: systemic / in life observation / clinical signs / erythema + systemic / in life observation / clinical signs / salivation.
Setting [41] is: systemic / in life observation / body weight / body weight gain + systemic / pathology gross / thyroid gland / enlarged.
Where [42] appears, read: systemic / in life observation / body weight / body weight gain + systemic / pathology gross / thyroid gland / enlarged + systemic / ….
Where [43] appears, read: systemic / in life observation / body weight / body weight gain.
The mark [44] stands for this setting: systemic / in life observation / body weight / body weight gain + systemic / pathology microscopic / harderian gland / adenoma + systemic / ….
Setting [45] is: systemic / in life observation / body weight / body weight gain + systemic / pathology microscopic / thyroid gland / hyperplasia + systemic….
The mark [46] stands for this setting: systemic / pathology microscopic / thyroid gland / hyperplasia.
Setting [47] is: systemic / hematology / erythrocyte (rbc) count differential / erythrocyte (rbc) + systemic / hematology / hemoglobin (hgb) / hemoglobin (….
Setting [48] is: systemic / in life observation / body weight / body weight.
Where [49] appears, read: systemic / in life observation / body weight / body weight + systemic / pathology microscopic / liver / adenoma/carcinoma combined + ….

One may read the LOAEL as the lowest dose or exposure tested at which an adverse effect was seen. In general, NOAEL refers to the highest dose or exposure tested at which no adverse effect was seen. `O=C(Nc1ccc2[nH]ccc2c1)c1cc2cc(F)ccc2n1Cc1cccc(F)c1`: the LOAEL in data set [1] (setting [21]) was 100 mg/kg/day; in data set [2] (setting [23]), 6 mg/kg/day; in data set [2] (setting [24]) it was 6 mg/kg/day; in data set [3] (setting [26]) it was over 900 mg/kg/day; in data set [3] (setting [27]), over 900 mg/kg/day; in data set [4] it was over 1 mg/kg/day. The LOAEL in data set [5] (setting [26]) was over 400 mg/kg/day; in [5] (setting [29]), over 400 mg/kg/day; in data set [6] (setting [30]), 6 mg/kg/day; in [6] (setting [31]), 6 mg/kg/day. Moreover, the NOAEL in data set [1] (setting [21]) is 2 mg/kg/day; in [2] (setting [23]), 1 mg/kg/day; in [2] (setting [24]), 1 mg/kg/day; in data set [3] (setting [26]) it was at least 900 mg/kg/day; in data set [3] (setting [27]), at least 900 mg/kg/day; in [4], at least 1 mg/kg/day. The NOAEL in data set [5] (setting [26]) is at least 400 mg/kg/day; in data set [5] (setting [29]) it was at least 400 mg/kg/day; in data set [6] (setting [30]), 1 mg/kg/day; in data set [6] (setting [31]) it was 1 mg/kg/day. The LEL in [1] (setting [22]) amounted to 2 mg/kg/day; in [2] (setting [23]) it was 6 mg/kg/day; in data set [2] (setting [25]) it was 1 mg/kg/day; in [3] (setting [26]), 5 mg/kg/day; in data set [3] (setting [28]), 5 mg/kg/day; in data set [4], 0.05 mg/kg/day. The LEL stood at 10 mg/kg/day in data set [5] (setting [26]), 10 mg/kg/day in [5] (setting [29]), 6 mg/kg/day in data set [6] (setting [30]) and 1 mg/kg/day in data set [6] (setting [32]). Besides, the NEL in data set [1] (setting [22]) is under 2 mg/kg/day; in [2] (setting [23]) it was 1 mg/kg/day; in data set [2] (setting [25]) it was under 1 mg/kg/day; in data set [3] (setting [26]) it was under 5 mg/kg/day; in [3] (setting [28]), under 5 mg/kg/day; in [4] it was under 0.05 mg/kg/day. For the same molecule, the NEL in data set [5] (setting [26]) was under 10 mg/kg/day; in [5] (setting [29]) it was under 10 mg/kg/day; in data set [6] (setting [30]), 1 mg/kg/day; in data set [6] (setting [32]), under 1 mg/kg/day.
For `NC(=O)N(O)[C@@H]1COc2cc(OCc3ccccc3)ccc21`, in data set [7] (setting [33]), the LOAEL is over 1000 mg/kg/day and the NOAEL was at least 1000 mg/kg/day. In data set [7] (setting [34]), the LEL amounted to 100 mg/kg/day and the NEL was under 100 mg/kg/day. Further, in data set [8], the LEL amounted to 1000 mg/kg/day, the LOAEL was over 1000 mg/kg/day, the NEL was found to be 100 mg/kg/day and the NOAEL was at least 1000 mg/kg/day.
With `COc1ccc(NC(=O)c2c[nH]c3c2C(=O)CCCC3)c(F)c1`, the LOAEL is over 250 mg/kg/day in [9] (setting [35]), over 100 mg/kg/day in data set [10] (setting [37]) and over 250 mg/kg/day in data set [11] (setting [39]). Further, the results for the NOAEL in data set [9] (setting [35]), in data set [10] (setting [37]) and in data set [11] (setting [39]) were at least 250 mg/kg/day, at least 100 mg/kg/day and at least 250 mg/kg/day, respectively. Besides, the LEL in data set [9] (setting [36]) was 25 mg/kg/day; in data set [10] (setting [38]) it was 5 mg/kg/day; in [11] (setting [40]), 10 mg/kg/day. Further, the NEL was under 25 mg/kg/day in data set [9] (setting [36]), under 5 mg/kg/day in [10] (setting [38]) and under 10 mg/kg/day in data set [11] (setting [40]).
As to `Nc1ccc(Oc2ccc(N)cc2)cc1` [4,4'-Oxydianiline], the LOAEL in data set [12] (setting [21]) is over 557 mg/kg/day; in [13] (setting [41]), 10 mg/kg/day; in data set [14] (setting [43]), 22.5 mg/kg/day; in [15], 30 mg/kg/day; in data set [16] (setting [45]) it was 90 mg/kg/day; in [17] (setting [21]), over 168 mg/kg/day. The NEL is 68 mg/kg/day in data set [12] (setting [21]); under 10 mg/kg/day in data set [13] (setting [42]); under 22.5 mg/kg/day in data set [14] (setting [44]); 15 mg/kg/day in data set [15]; under 45 mg/kg/day in data set [16] (setting [43]); under 27 mg/kg/day in data set [17] (setting [46]). Also, the NOAEL in data set [12] (setting [21]) is at least 557 mg/kg/day; in [13] (setting [41]) it was under 10 mg/kg/day; in data set [14] (setting [43]), under 22.5 mg/kg/day; in [15], 15 mg/kg/day; in data set [16] (setting [45]), 45 mg/kg/day; in [17] (setting [21]) it was at least 168 mg/kg/day. Moreover, the LEL was 138 mg/kg/day in [12] (systemic / in life observation / body weight / body weight + systemic / in life observation / body weight / body weight gain + systemic / …); 10 mg/kg/day in data set [13] (setting [42]); 22.5 mg/kg/day in [14] (setting [44]); 30 mg/kg/day in data set [15]; 45 mg/kg/day in data set [16] (setting [43]); 27 mg/kg/day in data set [17] (setting [46]).
Regarding `CNc1ccccc1C(=O)OC` [Methyl 2-(methylamino)benzoate], in data set [18] (setting [47]), the lowest-observed-adverse-effect level (LOAEL) was over 244 mg/kg/day, the NEL came to 21 mg/kg/day and the NOAEL was at least 244 mg/kg/day. In data set [18] (systemic / hematology / leukocyte (wbc) count differential / leukocyte (wbc) + systemic / organ weight / kidney / absolute + systemic / …), the LEL is 82 mg/kg/day.
For `CN(C)c1ccc(C(=O)c2ccc(N(C)C)cc2)cc1` [Michler's ketone], in data set [19] (setting [48]), the LOAEL is 12.5 mg/kg/day and the NOAEL was under 12.5 mg/kg/day. In addition, in data set [19] (setting [49]), the LEL was determined as 12.5 mg/kg/day and the NEL was under 12.5 mg/kg/day. In [20] (setting [48]), this molecule gave an LOAEL of 188 mg/kg/day and an NOAEL of under 188 mg/kg/day. In addition, in data set [20] (setting [49]), the LEL is 188 mg/kg/day and the NEL is under 188 mg/kg/day.
